Assays:
[1] = in vivo, cited from earlier work
tumor [2] = experiment: 5-FU and oral uridine rescue in tumor-bearing CD8FI mice (Table 4); assay type: in vivo, mouse; conditions: 5-FU 150 mg/kg weekly
Experimental: (§1) Observations were recorded 6 days after the last injection.
(§2) A second trial was repeated by administering uridine 2 hours after the administration of 5-fluorouracil in a concentration of 780 mg/kg and then 2 1/2 hours later at a concentration of 1,040 mg/kg every 8 hr×5.

tumor [3] = experiment: 5-FU and oral uridine rescue plus BAU in tumor-bearing CD8FI mice (Table 7); assay type: in vivo, mouse; conditions: 5-FU 150 mg/kg
Experimental: as §1, §2

tumor [4] = experiment: 5-FU and oral BAU in tumor-bearing CD8FI mice (Table 5); conditions: 5-FU 150 mg/kg/wk
tumor [5] = experiment: Toxicity of 5-FU and tumor weight in tumor-bearing CD8FI female mice (Table 2)
[6] = as above; conditions: mouse, in vivo, iv
[7] = Toxic dose of weekly 5-FU and severity of myelosuppression in patients (Table 1); assay type: in vivo, human; conditions: for Toxic dose: weekly i.v. 5-FU
Experimental: A representative schedule of clinical administration includes administering weekly i.v. injections of a bolus of 5-FU on an outpatient basis. A typical starting dose is about 500 mg/m^2. Every four weeks the 5-FU dose is increased by 20% until dose-limiting toxicity occurs, which can be indicated by weight loss, or destruction of bone marrow cells and the loss of white blood cells.

[8] = Toxicity of 5-FU 130 mg/kg/wk in CD8FI female mice with breast tumors (FIG. 1); assay type: in vivo, mouse; conditions: mouse, in vivo, iv; 5-FU 130 mg/kg/wk i.v. × 3 weeks
Experimental: (§3) FIG. 1 is a plot showing the toxicity of 5-fluorouracil. Toxicity in the plot is measured as a function of the percent of body weight change over time.
(§4) FIG. 1 establishes that 5-FU administered by i.v. in doses of 130 mg/kg/wk to mice is a toxic dose. Toxicity is determined by a change in body weight. Ten CD8FI female mice with breast tumors were treated with weekly doses of 5-fluorouracil in amounts of 130 mg/kg for three weeks. The percent of body weight change of the mice is shown and plotted over a period of approximately 12 days after administration of the last dose. The mice receiving 130 mg/kg of 5-FU suffered a weight loss of approximately 25% and a mortality of 30%.

breast tumors = experiment: as above; assay type: in vivo, mouse
Experimental: as §3, §4

BAU toxicity in animals = assay type: in vivo; conditions: animal data
Experimental: BAU may be administered orally at the rate of 0.5-2 g/m^2 every 4-6 hours for 3 days starting 1/2-2 hours after 5-FU administration, i.e., between 6 g/m^2 /wk and 36 g/m^2 /wk. Based on animal data BAU is non-toxic. Accordingly, it appears that the amounts of BAU which can be administered are not limited by toxic effects and, therefore, increased amounts of BAU may be administered.

phosphorylase = conditions: in combination with uridine (Martin et al); cited from earlier work
thymidylate synthetase = conditions: Goodman & Gilman 5th Ed.; cited from earlier work
[9] = then oral UR 600 mg/kg at 2 hrs, then 800 mg/kg q. 8 hr × 5
[10] = then oral UR 780 mg/kg at 2 hrs, then 1,040 mg/kg q. 8 hr × 5
[11] = oral UR 600 then 800 mg/kg q. 8 hr × 5, plus oral BAU 250 mg/kg
[12] = oral UR 780 then 1,040 mg/kg q. 8 hr × 5, plus oral BAU 250 mg/kg
[13] = 5-FU 100 mg/kg i.v. weekly × 3, 6 days after last injection
[14] = 5-FU 150 mg/kg i.v. weekly × 3, 6 days after last injection
[15] = patient 1, weekly 5-FU toxic dose 720 mg/m^2
[16] = patient 2, weekly 5-FU toxic dose 600 mg/m^2
[17] = patient 3, weekly 5-FU toxic dose 600 mg/m^2
[18] = patient 4, weekly 5-FU toxic dose 864 mg/m^2
[19] = patient 5, weekly 5-FU toxic dose 864 mg/m^2
[20] = patient 6, weekly 5-FU toxic dose 864 mg/m^2
[21] = patient 7, weekly 5-FU toxic dose 600 mg/m^2
[22] = patient 8 (first), weekly 5-FU toxic dose 720 mg/m^2
[23] = patient 8 (second), weekly 5-FU toxic dose 720 mg/m^2

O=c1ccn([C@@H]2O[C@H](CO)[C@@H](O)[C@H]2O)c(=O)[nH]1 [uridine]
side effects of intravenous uridine ([1]; iv): fever and phlebitis
side effects of oral uridine in large doses ([1]; po): irritates the gastrointestinal tract, which frequently causes severe diarrhea
catabolism of uridine [1]: quickly catabolized
plasma uridine levels after large doses of uridine [1]: millimolar or high micromolar uridine levels
Mortality (tumor [2]; [9]): 4/10
Tumor Weight (tumor [2]; [9]): 242 mgs
Mortality (tumor [2]; [10]): 0/10
Tumor Weight (tumor [2]; [10]): 361 mgs
Mortality (tumor [3]; [11]): 0/10
Tumor Weight (tumor [3]; [11]): 475 mgs
Mortality (tumor [3]; [12]): 1/10
Tumor Weight (tumor [3]; [12]): 434 mgs

O=c1[nH]cc(F)c(=O)[nH]1 [5-FU, 5-fluorouracil]
lethality of 5-FU (in words) (tumor [4]): lethal dose
Mortality (tumor [5]; [13]): 0/10
Tumor Weight (tumor [5]; [13]): 688 mgs
Mortality (tumor [5]; [14]): 8/10
Tumor Weight (tumor [5]; [14]): 433 mgs
MTD [6]: 100 mg/kg
Mortality ([6]; 150 mg/kg): 80%
Nadir at toxicity, Platelets [7, 15]: 1.51e+08 mL⁻¹
Nadir at toxicity, wbc [7, 15]: 1.6e+06 mL⁻¹
Nadir at toxicity, Platelets [7, 16]: 1.01e+08 mL⁻¹
Nadir at toxicity, wbc [7, 16]: 2.7e+06 mL⁻¹
Nadir at toxicity, Platelets [7, 17]: 7.6e+07 mL⁻¹
Nadir at toxicity, wbc [7, 17]: 1.4e+06 mL⁻¹
Nadir at toxicity, Platelets [7, 18]: 1.1e+08 mL⁻¹
Nadir at toxicity, wbc [7, 18]: 2.8e+06 mL⁻¹
Nadir at toxicity, Platelets [7, 19]: 2.05e+08 mL⁻¹
Nadir at toxicity, wbc [7, 19]: 2e+06 mL⁻¹
Nadir at toxicity, Platelets [7, 20]: 8.4e+07 mL⁻¹
Nadir at toxicity, wbc [7, 20]: 4.3e+06 mL⁻¹
Nadir at toxicity, Platelets [7, 21]: 8.2e+07 mL⁻¹
Nadir at toxicity, wbc [7, 21]: 6.7e+06 mL⁻¹
Nadir at toxicity, Platelets [7, 22]: 9.5e+07 mL⁻¹
Nadir at toxicity, wbc [7, 22]: 4.1e+06 mL⁻¹
Nadir at toxicity, Platelets [7, 23]: 7.4e+07 mL⁻¹
Nadir at toxicity, wbc [7, 23]: 3.7e+06 mL⁻¹
Toxic dose ([7]; patient 1, WHO 1, prior chemotherapy None): 720 mg/m^2
Toxic dose ([7]; patient 2, WHO 1, prior chemotherapy None): 600 mg/m^2
Toxic dose ([7]; patient 3, WHO 0, prior HAI 5-FU): 600 mg/m^2
Toxic dose ([7]; patient 4, WHO 2, prior chemotherapy None): 864 mg/m^2
Toxic dose ([7]; patient 5, WHO 1, prior chemotherapy None): 864 mg/m^2
Toxic dose ([7]; patient 6, WHO 1, prior HAI 5-FU): 864 mg/m^2
Toxic dose ([7]; patient 7, WHO 1, prior TGU): 600 mg/m^2
Toxic dose ([7]; patient 8 (first), WHO 1, prior chemotherapy None): 720 mg/m^2
Toxic dose ([7]; patient 8 (second), WHO 0, prior FAC): 720 mg/m^2
Mortality [8]: 30%
weight loss (breast tumors; 5-FU 130 mg/kg/wk i.v. × 3 weeks): approximately 25%
Toxic dose (breast tumors; i.v., mice): 130 mg/kg/wk

O=c1[nH]c(=O)n(COCCO)cc1Cc1ccccc1 [BAU, 5-benzylacyclouridine]
toxicity (BAU toxicity in animals): non-toxic
effect on uridine breakdown and clearance (phosphorylase): prevents the breakdown of uridine by phosphorylase and the subsequent rapid body clearance of uridine

O=c1[nH]c(=O)n([C@H]2C[C@H](O)[C@@H](COP(=O)(O)O)O2)cc1F [F-dUMP, 5-fluoro-2'-deoxyuridine-5'-phosphate]
affinity for thymidylate synthetase (thymidylate synthetase): unusually great affinity
